Measured values taken from ChEMBL document CHEMBL1201862, “PubChem BioAssay data set” (2004).
Structures can show the parent of a compound that is named as a salt.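 The compound was tested at five concentrations on cells cultured in 96-well plates, with a 48-hour exposure period. GI50: concentration for 50% inhibition of growth.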 Activity calls are given as the source filed them. Rule as the data show it: active = GI50 up to about 1.1 µM and inactive = higher. Starred links: 1 amine or outer side, 2 acyl side, 3 side chain; linkers in the order of their positions; H or OH if unused. Residues, ends and D or L forms follow the SMILES beside them. *: point of attachment. γGlu = O=C(O)[CH](CCC(=O)[*:2])N[*:1]; NHOH = ON*

Columns and labels:
Assay in all cases: growth of human tumour cells (NCI), 48 h
786-0 = system: 786-0
BT-549 = system: BT-549
HCT-15 = system: HCT-15
HL-60 = system: HL-60
Hs-578T = system: Hs-578T
K562 = system: K562
MDA-MB-231 = system: MDA-MB-231
MDA-N = system: MDA-N
Malme-3M = system: Malme-3M
NCI-H522 = system: NCI-H522
NCI/ADR-RES = system: NCI/ADR-RES
OVCAR-4 = system: OVCAR-4
PC-3 = system: PC-3
SF-295 = system: SF-295
SF-539 = system: SF-539
SK-MEL-5 = system: SK-MEL-5
SN12C = system: SN12C
TK-10 = system: TK-10
U-251 = system: U-251
CAKI-1 = system: CAKI-1

Row | Structure (SMILES) | GI50 (786-0) | GI50 (BT-549) | GI50 (HCT-15) | GI50 (HL-60) | GI50 (Hs-578T) | GI50 (K562) | GI50 (MDA-MB-231) | GI50 (MDA-N) | GI50 (Malme-3M) | GI50 (NCI-H522) | GI50 (NCI/ADR-RES) | GI50 (OVCAR-4) | GI50 (PC-3) | GI50 (SF-295) | GI50 (SF-539) | GI50 (SK-MEL-5) | GI50 (SN12C) | GI50 (TK-10) | GI50 (U-251) | GI50 (CAKI-1)
1 | C/C(=C\CBr)CCC(Br)C(C)(C)Br (stereo not drawn) | > 100 µM (inactive) | > 100 µM (inactive) | > 100 µM | > 100 µM (inactive) | > 100 µM (inactive) | > 100 µM (inactive) | > 100 µM (inactive) | > 100 µM (inactive) | > 100 µM (inactive) | > 100 µM (inactive) | > 100 µM (inactive) | > 100 µM (inactive) | > 100 µM (inactive) | > 100 µM (inactive) | > 100 µM (inactive) | > 100 µM (inactive) | > 100 µM (inactive) | > 100 µM (inactive) | > 100 µM (inactive) | 
2 | COc1ccc(OC)c2sc(N3C(=O)/C(=C/c4cccc(Oc5ccccc5)c4)N=C3c3ccccc3)nc12 | > 100 µM (inactive) | > 100 µM (inactive) | 87.9 µM | 38 µM (inactive) | > 100 µM (inactive) | 32.1 µM (inactive) | > 100 µM (inactive) | 38 µM (inactive) | > 100 µM (inactive) | 53.7 µM (inactive) | > 100 µM (inactive) | > 100 µM (inactive) | > 100 µM (inactive) | > 100 µM (inactive) |  | 47.5 µM (inactive) | > 100 µM (inactive) | > 100 µM (inactive) | 92 µM (inactive) | > 100 µM (inactive)
3 | O=C1NC(N2CCCCC2)=N/C1=C\c1cccs1 | > 100 µM (inactive) | > 100 µM (inactive) | > 100 µM | > 100 µM (inactive) | > 100 µM (inactive) |  | > 100 µM (inactive) | > 100 µM (inactive) | > 100 µM (inactive) | > 100 µM (inactive) | > 100 µM (inactive) | > 100 µM (inactive) | > 100 µM (inactive) | > 100 µM (inactive) | > 100 µM (inactive) |  | > 100 µM (inactive) | > 100 µM (inactive) | > 100 µM (inactive) | > 100 µM (inactive)
4 | COc1ccc2cc(NC(=O)N/N=C\c3ccc([N+](=O)[O-])cc3)ccc2c1 | 30.5 µM (inactive) | 27.2 µM (inactive) | 48 µM | 45 µM (inactive) | 42.5 µM (inactive) | 80.4 µM (inactive) | 37.4 µM (inactive) | 79.3 µM (inactive) | 23.4 µM (inactive) | 16 µM (inactive) | 23.8 µM (inactive) | 1.91 µM (inactive) | 27.6 µM (inactive) | 25.9 µM (inactive) |  | 73.3 µM (inactive) | 86.3 µM (inactive) |  | 29.9 µM (inactive) | 43.6 µM (inactive)
5 | CCC(CCC(C)C1CCC2C3CC=C4CC(OC5OC(CO)C(O)C(O)C5O)CCC4(C)C3CCC12C)C(C)C (stereo not drawn) | > 100 µM (inactive) | > 100 µM (inactive) | > 100 µM | > 100 µM (inactive) | > 100 µM (inactive) |  | > 100 µM (inactive) | > 100 µM (inactive) | > 100 µM (inactive) | > 100 µM (inactive) | > 100 µM (inactive) | > 100 µM (inactive) | > 100 µM (inactive) | 98.9 µM (inactive) | > 100 µM (inactive) | > 100 µM (inactive) | > 100 µM (inactive) | > 100 µM (inactive) | > 100 µM (inactive) | > 100 µM (inactive)
6 | c1ccc2c(c1)Sc1ccccc1N2CCCN1c2ccccc2Sc2ccccc21 | 20.2 µM (inactive) | > 100 µM (inactive) | > 100 µM |  | 41.2 µM (inactive) | > 100 µM (inactive) | > 100 µM (inactive) | > 100 µM (inactive) | > 100 µM (inactive) | > 100 µM (inactive) | 69.8 µM (inactive) | 36.1 µM (inactive) | > 100 µM (inactive) | > 100 µM (inactive) | > 100 µM (inactive) | > 100 µM (inactive) | 91.6 µM (inactive) | > 100 µM (inactive) | 45.9 µM (inactive) | > 100 µM (inactive)
7 | COc1ccc(C(NS(=O)(=O)c2ccc(C)cc2)c2c(C(CBr)OC)c3ccccc3n2S(=O)(=O)c2ccccc2)cc1OC (stereo not drawn) | > 100 µM (inactive) | > 100 µM (inactive) | > 100 µM | > 100 µM (inactive) | > 100 µM (inactive) | > 100 µM (inactive) | 52.8 µM (inactive) | > 100 µM (inactive) | > 100 µM (inactive) | > 100 µM (inactive) | > 100 µM (inactive) | > 100 µM (inactive) | > 100 µM (inactive) | > 100 µM (inactive) | > 100 µM (inactive) | > 100 µM (inactive) | > 100 µM (inactive) | > 100 µM (inactive) | > 100 µM (inactive) | > 100 µM (inactive)
8 | Cc1nc2ccccc2c(=O)n1NC(=O)c1ccccn1 | > 100 µM (inactive) | > 100 µM (inactive) |  | > 100 µM (inactive) | > 100 µM (inactive) | > 100 µM (inactive) | > 100 µM (inactive) | > 100 µM (inactive) | > 100 µM (inactive) | > 100 µM (inactive) | > 100 µM (inactive) | > 100 µM (inactive) | > 100 µM (inactive) | > 100 µM (inactive) | > 100 µM (inactive) | > 100 µM (inactive) | > 100 µM (inactive) | > 100 µM (inactive) | > 100 µM (inactive) | 
9 | CCOC(=O)CC(=O)Nc1cccc2sc3ncccc3c(=O)c12 | 35 µM (inactive) | 43.4 µM (inactive) | 38.4 µM |  | 19.1 µM (inactive) | 20.6 µM (inactive) | 60.8 µM (inactive) | 76.7 µM (inactive) | 54.6 µM (inactive) | 45.4 µM (inactive) | 36.8 µM (inactive) | 83.2 µM (inactive) | 5.81 µM (inactive) | 43.5 µM (inactive) | 41.7 µM (inactive) | 5.37 µM (inactive) | 51.8 µM (inactive) | 34.4 µM (inactive) | 32.6 µM (inactive) | 27.9 µM (inactive)
10 | CN1CN(c2ccccc2)C2(CCN(C3Nc4ccccc4O3)CC2)C1=O (stereo not drawn) | 20.6 µM (inactive) | 15.7 µM (inactive) | 15.2 µM | 12.5 µM (inactive) | 12.9 µM (inactive) | 18.5 µM (inactive) | 20.1 µM (inactive) | 17.9 µM (inactive) | 17.3 µM (inactive) | 17.5 µM (inactive) | 20.8 µM (inactive) |  | 16.7 µM (inactive) | 16.6 µM (inactive) | 15.1 µM (inactive) | 17.7 µM (inactive) | 19.2 µM (inactive) | 11.1 µM (inactive) | 18.2 µM (inactive) | 25.5 µM (inactive)
11 | NC(=O)c1cc2cc(Cl)cc(Cl)c2o/c1=N\c1ccc(F)cc1 | 12.2 µM (inactive) | 18.6 µM (inactive) | 17.3 µM | 64.1 µM (inactive) | 35.1 µM (inactive) | 7.11 µM (inactive) | 17.5 µM (inactive) | 22.4 µM (inactive) | 21 µM (inactive) | 17.7 µM (inactive) | 16 µM (inactive) | 23.8 µM (inactive) | 19.1 µM (inactive) | 18.5 µM (inactive) |  | 16.9 µM (inactive) | 16.7 µM (inactive) | 14.3 µM (inactive) | 19.6 µM (inactive) | 18.1 µM (inactive)
12 | CSc1ncc2c(n1)-c1ccccc1OC2N1CCCCC1 (stereo not drawn) | 29.4 µM (inactive) | 24.3 µM (inactive) | 28.9 µM | 19.7 µM (inactive) | 26.9 µM (inactive) | 29.5 µM (inactive) | 23 µM (inactive) | 38.1 µM (inactive) |  | 18.9 µM (inactive) | 40.6 µM (inactive) | 28.8 µM (inactive) | 48.2 µM (inactive) | 38.5 µM (inactive) | 51.9 µM (inactive) | 20.3 µM (inactive) | 29.8 µM (inactive) | 27.3 µM (inactive) | 39 µM (inactive) | 21.7 µM (inactive)
13 | O=C1C(O)=C(C(CCc2ccccc2)C2=C(O)C(=O)c3ccccc3C2=O)C(=O)c2ccccc21 | > 100 µM (inactive) | > 100 µM (inactive) | 40.9 µM | 1.1 µM (active) | 5.32 µM (inactive) |  | 66.8 µM (inactive) | 16.2 µM (inactive) | 4.27 µM (inactive) | 23.8 µM (inactive) | > 100 µM (inactive) | 67.9 µM (inactive) | 68.7 µM (inactive) | 6.11 µM (inactive) | 58.5 µM (inactive) | 4.08 µM (inactive) | 56 µM (inactive) | > 100 µM (inactive) | 45.6 µM (inactive) | > 100 µM (inactive)
14 | CCOC(=O)CNC(=O)C(CCC(=O)NO)NC(=O)CCC(N)C(=O)O (stereo not drawn) (γGlu-Glu(NHOH)-Gly-OEt; configuration not given here) | > 100 µM (inactive) | > 100 µM (inactive) | > 100 µM | > 100 µM (inactive) | > 100 µM (inactive) | > 100 µM (inactive) | > 100 µM (inactive) | > 100 µM (inactive) |  | > 100 µM (inactive) | > 100 µM (inactive) | > 100 µM (inactive) | > 100 µM (inactive) | > 100 µM (inactive) | > 100 µM (inactive) | > 100 µM (inactive) | > 100 µM (inactive) | > 100 µM (inactive) | > 100 µM (inactive) | > 100 µM (inactive)
15 | COc1ccc(Cc2nccc3cc(OC)c(OC)cc23)cc1OC [PAPAVERINE HYDROCHLORIDE] | > 100 µM (inactive) | 53.8 µM (inactive) | 87.3 µM | 45 µM (inactive) | > 100 µM (inactive) | 37.3 µM (inactive) | 47.2 µM (inactive) | 94 µM (inactive) |  | > 100 µM (inactive) | 26.7 µM (inactive) | > 100 µM (inactive) | 74.3 µM (inactive) | 84.9 µM (inactive) | 76 µM (inactive) | 16.6 µM (inactive) | > 100 µM (inactive) | > 100 µM (inactive) | > 100 µM (inactive) | 47.3 µM (inactive)
